Reference: US20100022639A1, “Methods of Inducing Weight Loss” (The Johns Hopkins University School of Medicine Licensing …, priority 2000, published 2010)

Columns and labels:
[1] = system: hepatic malonyl-CoA; experiment: Hepatic malonyl-CoA level after dextrose gavage and IP C-75; type: in vivo, BALB/c mice; conditions: 20 mg/kg IP, one hour post-treatment, after 2 g/kg dextrose
Method: Male BALB/c mice (4 per group) were given 2 g/kg dextrose by oral gavage. After 15 min mice were injected IP with 20 mg/kg C-75 or RPMI vehicle. One hour post-treatment, livers were rapidly removed, frozen and pulverized in liquid nitrogen, HC104 extracted and assayed for malonyl-CoA [J. D. McGarry, M. J. Stark, D. W. Foster., J. Biol. Chem 253, 8291 (1978)]. Intraperitoneal injection of mice with C-75 leads to a 95% reduction in ^14C-acetate incorporation into fatty acids and to a 110% increase in the level of hepatic malonyl-CoA, the principal substrate of FAS. Experiments described in panels B and C were repeated twice.

[2] = system: liver and white adipose tissue; experiment: Histology of liver and white adipose tissue of treated ob/ob mice; type: in vivo
Text: C-75 treatment not only led to weight loss, but also corrected many of the pathological consequences that result from the extreme obesity of ob/ob mice. Liver samples from vehicle and C-75 treated mice (from FIG. 3B) were fixed in formalin and paraffin embedded. Tissue sections (4 μm) were stained with hematoxylin and eosin. […] The observation that C-75 acts through a leptin independent mechanism is particularly promising in that the majority of obese individuals appear to be relatively resistant to leptin's effects (Caro, et al., 1996, Lancet, 348:159).

[3] = system: serum glucose; experiment: Serum glucose in wild-type mice, acute treatment; type: in vivo, BALB/c mice; conditions: 30 mg/kg IP, 24 hours, n=7
Method: (§1) In addition to obesity, ob/ob mice also develop overt diabetes with significant elevation of blood glucose. C-75 corrected the hyperglycemia observed in vehicle treated mice with a nearly 3-fold reduction in mean serum glucose (FIG. 4A). Male ob/ob mice (n=3) were treated with C-75 or vehicle for 2 weeks (FIGS. 3B and C) and compared with age matched, untreated c57BL/6j mice (+/+). […] The normalization of blood glucose occurred from the profound weight loss in the ob/ob mice as acute treatment of normal mice with C-75 had no effect on serum other than that resulting from inhibition of feeding (FIG. 4B). Male BALB/c mice (n=7) were fasted for 24 hours or injected IP with 30 mg/kg C-75 or RPMI vehicle and allowed free access to food for 24 hours. In both cases, serum was collected at death and assayed for glucose: RefLab™ GLU (Medical Analysis Systems, Inc., Camarillo, Calif.). […] Both panels are representative of 2 experiments.

[4] = system: serum glucose; experiment: Serum glucose in ob/ob mice; type: in vivo; conditions: 2 weeks treatment, n=3
Method: as §1

[5] = Body weight of ob/ob mice over two week treatment; type: in vivo; conditions: 22 mg/kg IP every third day, two weeks
Text: The magnitude of this effect is readily evident by inspection of representative C-75 and control treated ob/ob mice.

[6] = system: feeding behavior; experiment: Food intake after a single IP injection (metabolic cages); type: in vivo, BALB/c mice; conditions: 15 mg/kg, first 24 hours
Method: (§2) Male BALB/c mice 19-22 g were weighed, treated by a single intra peritoneal (I.P.) injection and housed in metabolic cages. Body weight (FIG. 1.2A) and food intake (FIG. 1.2B) were monitored at 24 hour intervals.
Inhibitors of fatty acid synthesis would be expected to prevent triglyceride accumulation due to inhibition of de novo fatty acid synthesis and impact body weight in this manner. […] However, the dramatic C-75-induced weight loss cannot be accounted for by a blockade of fatty acid/triglyceride biosynthesis. Rather, the weight loss observed in response to C-75 treatment results primarily from an inhibition of feeding. The loss of adipose mass was accompanied by a reduction of lean body mass typical of that observed in fasting. Administration of 15 mg/kg body weight led to a greater than 90% reduction in food intake over the first 24 hours (FIG. 1.2B). Feeding behavior then returned to normal progressively over a 48-72 hour period as the drug effect dissipated. The role of feeding inhibition in C-75 induced weight loss was confirmed by studies in which forced feeding of the drug treated animals largely reversed the observed weight loss.

[7] = system: leptin; experiment: Serum leptin ELISA; type: in vivo, BALB/c mice; conditions: 30 mg/kg IP, 24 hours
Text: One of the primary signals modulating NPY function in feeding control is leptin. This hormone is elevated in the fed state and inhibits NPY production and feeding (Schwartz, et al., 1996, Diabetes, 45:531) in a manner similar to that observed with C-75 treatment. Leptin was an attractive candidate as its primary site of production, white adipose tissue (Zhang, et al., 1994, Nature, 372:425), is a site of fatty acid synthesis and expresses high levels of FAS. To test for increased leptin release as the signal mediating C-75 regulation of NPY, serum leptin levels were assessed in fed (end of light cycle) fasted and C-75-treated mice. BALB/c mice treated with RPMI vehicle (o) or 30 mg/kg C-75 (▪) I.P. and free fed, or fasted ([…]) for 24 hours were weighed, decapitated and exsanguinated. Serum leptin levels were determined using a QUANTIKINE™ murine leptin ELISA (R&D Systems) and plotted against total body weight (FIG. 3A). […] This reduction correlates with the reduction in body weight, presumably body fat, resulting from C-75 treatment FIG. 3A). […] Northern blot analysis of leptin message levels in white adipose tissue from the same animals (performed as described above) supports this observation (data not shown).

[8] = Body weight after a single IP injection; type: in vivo, BALB/c mice
Method: The effect of C-75 treatment on feeding behavior and body weight in mice is both rapid and dramatic. A single treatment leads to the loss of as much as 20% of total body weight within 24 hours (FIG. 1.2A). This weight loss occurs in a dose dependent manner and persists for a duration that increases with dose. In all cases, treated animals recover lost body weight after the effect of the drug has dissipated, arguing against induction of a persistent wasting.
as §2

[9] = system: 3T3-L1 adipocytes; experiment: Cytoplasmic triglyceride accumulation in adipocytes in cell culture; type: cell-based; conditions: 3T3-L1 adipocytes in cell culture (not shown)

Structure (SMILES): C=C1C(=O)OC(CCCCCCCC)C1C(=O)O (stereo not drawn) [C-75]
- increase in the level of hepatic malonyl-CoA [1]: 110%
- liver histology (hepatomegaly and fatty liver) ([2]; 14 days treatment): marked reduction in the hepatomegaly and fatty liver
- mean adipocyte size in white adipose tissue ([2]; 14 days treatment (not shown)): dramatic reduction in mean adipocyte size
- histological abnormality from chronic treatment ([2]; liver and white adipose tissue): no evidence of histological abnormality
- effect on serum glucose in wild-type mice [3]: no effect on serum glucose beyond that attributable to fasting
- reduction in mean serum glucose [4]: ~3 fold
- body weight of ob/ob mice [5]: substantial reduction in the body weight
- reduction in food intake [6]: greater than 90%
- serum leptin levels [7]: reduction in leptin levels
- loss of total body weight after a single treatment ([8]; within 24 hours, single IP treatment, 7.5-30 mg/kg): ≤ 20%
- loss of total body weight ([8]; within a 24 hour period, BALB/c mice): 10-20%
- cytoplasmic triglyceride accumulation [9]: markedly reduces cytoplasmic triglyceride accumulation
